What was measured:
Sandhoff mouse (hexb-/-) [1] = assay: Open field test of motor activity in SD mice; type: in vivo; details: HEXB-HEXA treated SD mice plus drug, week 24
Description: Behavioural testing was carried out on a bi-weekly basis from the age of eight weeks until each end point. The behavioural testing was done in three different parts and always assessed in the morning of the 12 hour light cycle.
Open Field Test: Used to assess overall locomotion and activity levels. The mouse was placed in a 40 cm×40 cm arena with walls. Time moving, rearing activity and the distance travelled were all electronically recorded by an ActiMot system. Speed was calculated by dividing the distance travelled by the time moving. Each mouse underwent one five minute trial.
To determine if the administration of AAV9-HexB-HexA improved motor activity in the neonatally treated SD mice, distance travelled in the 5-minute open-field test was analyzed. Testing began at eight weeks, when motor deterioration in SD mice begins to show and continued on a bi-weekly basis to 24 weeks. […] In FIG. 4, values at each point represent the mean.

[2] = tested on: GM2 ganglioside storage in mouse brain; assay: GM2 ganglioside levels in midbrain by thin layer chromatography; type: in vivo; details: 16-week midbrain, drug on its own or in addition to HEXB-HEXA
Description: Animal tissues were collected at designated 16 week end points and long term humane end points. The humane end points were determined by either […] loss of peak body weight or an inability to right itself in 10 seconds. Euthanization was carried out via CO2 asphyxiation followed by cardiac puncture and perfusion with 10 mL of chilled PBS. For biochemical analysis sections of the forebrain, midbrain, hindbrain, cervical spinal cord, and lumbar spinal cord were collected along with the heart, lungs, liver, spleen, kidney, gonads, and a section skeletal muscle. These were all frozen immediately for further processing. For histological purposes, sections of the midbrain and liver were collected, fixed in 4% paraformaldehyde overnight and then immersed in 100% ethanol until sent to the Queen's University Histology department for paraffin embedding. Additional midbrain sections were collected from a number of mice and frozen in liquid nitrogen. Blood was collected via the saphenous vein on a monthly basis starting at 8 weeks and continuing until the humane end point. Additionally, blood was collected via the cardiac puncture during euthanization. Serum was separated from blood samples by centrifugation of 4000 rpm for 10 min and frozen immediately for storage. […]

[3] = tested on: β-hexosaminidase A (HexA); assay: HexA activity in midbrain (4-MUGS assay); type: in vivo, mouse; details: 16-week midbrain, drug alone or in conjunction with HEXB-HEXA
Description: Animal tissues were collected at designated 16 week end points and long term humane end points. The humane end points were determined by either […] loss of peak body weight or an inability to right itself in 10 seconds. Euthanization was carried out via CO2 asphyxiation followed by cardiac puncture and perfusion with 10 mL of chilled PBS. For biochemical analysis sections of the forebrain, midbrain, hindbrain, cervical spinal cord, and lumbar spinal cord were collected along with the heart, lungs, liver, spleen, kidney, gonads, and a section skeletal muscle. These were all frozen immediately for further processing. […]
Total hexosaminidase activity and Hex activity was measured as previously described (Maegawa et al. 2007; Tropak et al. 2004). […] Total hexosaminidase activity was determined through the use of the 4-methylumbelliferyl-2-acetamido-2-deoxy-β-D-glucopyranoside (4-MUG) assay, whereas the HexA enzyme activity alone was determined through the use of the 4-methylumbelliferyl-7-6-sulfo-2-acetamido-2-deoxy-β-D-glucopyranoside (4-MUGS) assay. Beta galactosidase activity was determined through the use of 4-methylumbelliferyl-β-D-galactopyranoside assay. […] Briefly, the samples were incubated with the fluorogenic substrate at 37° C. for 1 hour, then read on the plate reader with excitation wavelength of 365 nm and an emission wavelength of 450 nm. […]

Sandhoff mouse (hexb-/-) [4] = assay: Survival of SD mice (Kaplan-Meier, humane end point); type: in vivo; details: for Survival in conjunction with HEXB-HEXA: AAV9-HEXB-HEXA neonatal day one 2×10^13 vg/kg plus daily oral drug from eight weeks; for Survival time: untreated SD mice 110 days; for Mice that did not reach humane end point after 210 days: drug in conjunction with HEXB-HEXA, n=6 per group
Description: The hexb−/− experimental mice were obtained from Jackson Laboratories. From these, a colony was established at Queen's University through heterozygous breeding (hexb+/−). Genotyping of the mice was carried out via PCR amplification from animal ear punches taken at the time of weaning (three weeks of age). Experimental animals were obtained through mutant cross breeding (hexb−/−). The mice were maintained on a 12-hour light cycle from 7 am to 7 pm. All experimental protocols and procedures were performed in accordance with and were approved by the Queen's University Animal Care Committee.
Neonatal mice were intravenously injected with the ssAAV/HEXB-HEXA vector or a vehicle injection through the superficial temporal vein on day 0-1. Each treated mouse received an injection of 2.04×10^10 vg/mouse in a volume of 50 uL PBS with […] NaCl and 5% sorbitol (vehicle). Untreated mice received an injection of 50 uL vehicle. During the injections, the dames were removed from the pups and placed in a clean cage. The cage of the pups alone was placed on a heating pad to keep them warm. Pups were then removed from the cage, one at a time, and placed over an LED light to aid in visualization of the superficial temporal vein. The pups received the injection using a 30 gauge needle and 1 mL syringe. After the injection, pressure was applied to the mouse using sterile gauze and the pup was returned to the home cage. The dame was returned to the cage with the pups following the completion of all injections. Pups were then monitored closely for several days to ensure survival.
Starting at eight weeks of age, each drug treatment cohort received pyrimethamine, indomethacin, or ITF2357 at a dose of 1 mg/kg/day. Drug treatments were administered in the morning of the 12-hour light cycle via oral gavage using a 22 g curved feeding needle from Kent Scientific. ITF2357 was dissolved in ddH2O by heating to 85° C. while stirring for 1 hour. Indomethacin and pyrimethamine were each dissolved in 0.5% methylcellulose by heating to 80° C. while stirring for 1 hour. Each of these was stored at 4° C. for up to 2 weeks.
Animal tissues were collected at designated 16 week end points and long term humane end points. The humane end points were determined by either […] loss of peak body weight or an inability to right itself in 10 seconds. Euthanization was carried out via CO2 asphyxiation followed by cardiac puncture and perfusion with 10 mL of chilled PBS. For biochemical analysis sections of the forebrain, midbrain, hindbrain, cervical spinal cord, and lumbar spinal cord were collected along with the heart, lungs, liver, spleen, kidney, gonads, and a section skeletal muscle. These were all frozen immediately for further processing. For histological purposes, sections of the midbrain and liver were collected, fixed in 4% paraformaldehyde overnight and then immersed in 100% ethanol until sent to the Queen's University Histology department for paraffin embedding. Additional midbrain sections were collected from a number of mice and frozen in liquid nitrogen. Blood was collected via the saphenous vein on a monthly basis starting at 8 weeks and continuing until the humane end point. Additionally, blood was collected via the cardiac puncture during euthanization. Serum was separated from blood samples by centrifugation of 4000 rpm for 10 min and frozen immediately for storage.
To evaluate the efficacy of a single intravenous […] of rAAV9 expressing the human HEXA and HEXB cDNA in ameliorating the biochemical and neurological phenotype in SD, AAV9-HEXB-HEXA or a vehicle control was administered to postnatal day one neonates at a relatively low dose of 2×10^13 vg/kg via superficial temporal vein. Mice were all followed until they reached 32 weeks of age, or a humane end point.
Survival was analyzed with the log-rank (Mantel-Cox) test. […] This relationship is shown by the Kaplan-Meier plots in FIG. 3. […]

[5] = SD mice, drug alone 1 mg/kg/day oral gavage from eight weeks

**Q.** `COc1ccc2c(c1)c(CC(=O)O)c(C)n2C(=O)c1ccc(Cl)cc1` [indomethacin] was tested. Which “Mobility in the open field test in conjunction with HEXB-HEXA” value (Sandhoff mouse (hexb-/-) [1]) did it give?
**A.** significant increase in mobility

**Q.** And the “Additional decrease in GM2 ganglioside build-up” value [2]?
**A.** No additional decrease

**Q.** And the “Further change in HexA activity” value [3]?
**A.** no further increase or decrease

**Q.** And the “Survival in conjunction with HEXB-HEXA” value (Sandhoff mouse (hexb-/-) [4]; SD mice)?
**A.** significant increase in survival

**Q.** What about the Survival time (Sandhoff mouse (hexb-/-) [4]; [5]) of the same molecule?
**A.** 123.5 days

**Q.** And the “Mice that did not reach humane end point after 210 days” value (Sandhoff mouse (hexb-/-) [4])?
**A.** two

**Q.** How did the “Survival (mean)” value (Sandhoff mouse (hexb-/-) [4]; SD mice, drug alone 1 mg/kg/day oral gavage from eight weeks, no significant effect) turn out when `CCc1nc(N)nc(N)c1-c1ccc(Cl)cc1` [pyrimethamine] was run?
**A.** 112.5 days

**Q.** `CCN(CC)Cc1ccc2cc(COC(=O)Nc3ccc(C(=O)NO)cc3)ccc2c1` [ITF2357] was tested. Which “Mobility in the open field test in conjunction with HEXB-HEXA” value (Sandhoff mouse (hexb-/-) [1]) did it give?
**A.** significant increase in mobility

**Q.** What about the “Additional decrease in GM2 ganglioside build-up” value [2] of the same molecule?
**A.** No additional decrease

**Q.** What about the “Further change in HexA activity” value [3] of the same molecule?
**A.** no further increase or decrease

**Q.** What about the “Survival in conjunction with HEXB-HEXA” value (Sandhoff mouse (hexb-/-) [4]; SD mice) of the same molecule?
**A.** significant increase in survival

**Q.** And the Survival time (Sandhoff mouse (hexb-/-) [4]; [5])?
**A.** 119 days

**Q.** What about the “Mice that did not reach humane end point after 210 days” value (Sandhoff mouse (hexb-/-) [4]) of the same molecule?
**A.** two
